Our source for the IC50 values is patent US20260216197A1, “WRN HELICASE INHIBITOR” (SUZHOU PUHE BIOPHARMA CO., LTD., priority 2022, published 2026).

Structures are written as SMILES.

Usually IC50 stands for the midpoint of a concentration-inhibition curve. Read a high IC50 as lower potency.

In the test the test system is MSI-H colorectal cancer SW48 cell line. The test can be described thus: 2D anti-proliferative activity, MSI-H SW48 cells (CTG, 5 days). The format is cell-based. The following applies: Homo sapiens, 120 h, 5 days. As for the experimental part: The molecules of the present disclosure were tested for their anti-proliferative activity against MSI-H tumor cells.
The proliferation of tumor cells with microsatellite instability MSI-H is sensitive to WRN inhibitors, while the proliferation of microsatellite stable (MSS) tumor cells is insensitive to WRN inhibitors. By testing the activities of the two, it is shown that the molecules of the present disclosure have an inhibitory and synthetic lethal effect on WRN at the cellular level.
The MSI-unstable SW48 colorectal cancer cells were cultured in RPMI 1640 medium containing 10% FBS and 1% penicillin-streptomycin in a 37° C., 5% CO2 constant temperature incubator. A 40 μL cell suspension was added to each well of a 384-well microplate. Using Echo, 40 nL of compounds at different concentrations was dispensed into each well, followed by incubation in a 37° C., 5% CO2 constant temperature incubator for 5 days. Then, 40 μL of CTG solution (Promega, Cat No. G7573) was added to each well, and the plate was incubated in the dark in a 37° C., 5% CO2 constant temperature incubator for 30 minutes. Luminescence was measured using an Envision multi-function microplate reader (Perkin Elmer, Model: Envision 2104). The luminescent signal was proportional to the amount of ATP in the system, and the amount of ATP directly represented the number of living cells in the system.
In turn, `CCc1c(N2CCN(C(=O)c3ncnc(C)c3O)CC2)c(=O)n2nc(C3=CCOCC3)nc2n1CC(=O)Nc1ccc(Br)c2ccoc12` [Compound H25] gave a 50% inhibitory concentration (IC50) of 125 nM. For the molecule `CCc1c(N2CCN(C(=O)c3ncnc(C)c3O)CC2)c(=O)n2nc(C3=CCOCC3)nc2n1CC(=O)Nc1ccc2c3c1ccn3CCC2` [Compound H24], the IC50 worked out at 474 nM. This IC50 is about 3.8-fold higher than that of the molecule before.

In turn, `CCc1c(N2CCN(C(=O)c3ncnc(C)c3O)CC2)c(=O)n2nc(C3=CCOCC3)nc2n1CC(=O)Nc1ccc(Cl)c2ccoc12` [Compound H26] registered an IC50 of 137 nM.

The molecule `CCc1c(N2CCN(C(=O)c3ncccc3O)CC2)c(=O)n2nc(-c3cncs3)nc2n1CC(=O)Nc1ccc(C(F)(F)F)cc1Cl` [Compound P5] came in with an IC50 of 192 nM.
